Measurements: patent US20050250752A1, “Cembranoids with chemopreventive activity” (priority 2002, published 2005)

Legend:
[1] = tested on: Epstein-Barr virus early antigen (EBV-EA) of Raji cells induced by tumor promoter (TPA); assay: Inhibition of EBV-EA activation induced by TPA in Raji cells; assay type: cell-based; details: for EBV-EA induction, percentage relative to the positive control value (100%): TPA 32 pmol, Raji cells, 48 h
Protocol: (§1) The inhibition of EBV-EA activation was assayed using Raji cells (virus non-producer type). The indicator cells (Raji, 1×10^6/ml) were incubated at 37° C. for 48 h in 1 ml of medium containing n-butyric acid (4 mmol), TPA(12-O-tetradecanoylphorbol 13-acetate)(32 pmol=20 ng in 2 μl DMSO) as inducer and various amounts of test compounds in 5 μl DMSO. Smears were made from the cell suspension, and the activated cells, which were stained by EBV-EA positive serum from nasopharygeal carcinoma patients were detected by an indirect immunofluorescence technique. For each compound, assays were performed in triplicate. The average EBV-EA induction of the test compounds was expressed as a relative ratio to the control experiment (100%), which was carried out only with n-butyric acid plus TPA. The viability of treated Raji cells was assayed by the Trypan Blue staining method.

[2] = tested on: Raji cells; assay: Viability of treated Raji cells (Trypan Blue staining); assay type: cell-based
Protocol: as §1

[3] = tested on: papillomas (mouse skin carcinogenesis induced by DMBA/TPA); assay: Two-stage mouse skin carcinogenesis model induced by DMBA/TPA; assay type: in vivo, mouse (female ICR); details: topical 85 nm 1 hour before TPA, ICR mice
Protocol: In the two-stage mouse skin carcinogenesis model induced by DMBA/TPA, the animals (specific pathogen-free female ICR, 6 weeks old) were divided into 5 groups, 15 mice each. The back of each mouse was shaved with surgical clippers, and the mice were topically treated with DMBA (100 μg, 390 nmol) in acetone (0.1 ml) as an initiation treatment. For the positive control group, 1 week after initiation with DMBA, mice were promoted by the application with TPA (1 μg, 1.7 nmol) in acetone (0.1 ml) twice a week. The other four groups received a topical application of each of the sarcophine semi-synthetic derivatives (85 nm) 1 hour before application of the tumor promoter. The incidence of papillomas was observed weekly for 20 weeks. The percentage of mice bearing papillomas and the average number of papillomas per mouse were recorded.

[4] = x 1000 mol ratio/TPA (32 nmol/mL)

13S-hydroxysarcophine [Compound 4]
EBV-EA induction, percentage relative to the positive control value (100%) ([1]; x 10 mol ratio/TPA): 100%
EBV-EA induction, percentage relative to the positive control value (100%) ([1]; x 100 mol ratio/TPA): 81.3%
EBV-EA induction, percentage relative to the positive control value (100%) ([1]; x 500 mol ratio/TPA): 62.8%
EBV-EA induction, percentage relative to the positive control value (100%) [1, 4]: 14.2%
viability percentage of Raji cells (indicator cells) ([2]; x 10 mol ratio/TPA): > 80%
viability percentage of Raji cells (indicator cells) ([2]; x 100 mol ratio/TPA): > 80%
viability percentage of Raji cells (indicator cells) ([2]; x 500 mol ratio/TPA): > 80%
viability percentage of Raji cells (indicator cells) [2, 4]: 60%

CC1=C2CC/C(C)=C/CC[C@]3(C)O[C@H]3CC/C(C)=C/[C@@H]2OC1=O [Compound 3, Sarcophine, reference compound]
EBV-EA induction, percentage relative to the positive control value (100%) ([1]; x 10 mol ratio/TPA): 100%
EBV-EA induction, percentage relative to the positive control value (100%) ([1]; x 100 mol ratio/TPA): 84.0%
EBV-EA induction, percentage relative to the positive control value (100%) ([1]; x 500 mol ratio/TPA): 67.5%
EBV-EA induction, percentage relative to the positive control value (100%) [1, 4]: 19.6%
viability percentage of Raji cells (indicator cells) ([2]; human, 48 h, 0.32 nmol/mL): > 80%
viability percentage of Raji cells (indicator cells) ([2]; human, 48 h, 3.2 nmol/mL): > 80%
viability percentage of Raji cells (indicator cells) ([2]; x 500 mol ratio/TPA): > 80%
viability percentage of Raji cells (indicator cells) [2, 4]: 60%

CC1=C2CC/C(C=O)=C/CC[C@]3(C)O[C@H]3CC/C(C)=C/[C@@H]2OC1=O [Compound 6, sarcophine-20-carboxyaldehyde]
EBV-EA induction, percentage relative to the positive control value (100%) ([1]; x 10 mol ratio/TPA): 96.0%
EBV-EA induction, percentage relative to the positive control value (100%) ([1]; x 100 mol ratio/TPA): 78.2%
EBV-EA induction, percentage relative to the positive control value (100%) ([1]; x 500 mol ratio/TPA): 60.8%
EBV-EA induction, percentage relative to the positive control value (100%) [1, 4]: 12.7%
viability percentage of Raji cells (indicator cells) ([2]; x 10 mol ratio/TPA): > 80%
viability percentage of Raji cells (indicator cells) ([2]; x 100 mol ratio/TPA): > 80%
viability percentage of Raji cells (indicator cells) ([2]; x 500 mol ratio/TPA): > 80%
viability percentage of Raji cells (indicator cells) [2, 4]: 60%

C/C1=C\CCC2(C)OC2CC/C(C)=C/C=C(/[C@@](C)(O)CO)CC1 (stereo partly drawn) [Compound 11, 7,8-Epoxy-1,3,11-cembratriene-15R(α),16-diol]
Papilloma Bearer (%) ([3]; week 1 of promotion): 0.0%
Papillomas/mouse ([3]; week 1 of promotion): 0.0
Papilloma Bearer (%) ([3]; week 2 of promotion): 0.0%
Papillomas/mouse ([3]; week 2 of promotion): 0.0
Papilloma Bearer (%) ([3]; week 3 of promotion): 0.0%
Papillomas/mouse ([3]; week 3 of promotion): 0.0
Papilloma Bearer (%) ([3]; week 4 of promotion): 0.0%
Papillomas/mouse ([3]; week 4 of promotion): 0.0
Papilloma Bearer (%) ([3]; week 5 of promotion): 0.0%
Papillomas/mouse ([3]; week 5 of promotion): 0.0
Papilloma Bearer (%) ([3]; week 6 of promotion): 0.0%
Papillomas/mouse ([3]; week 6 of promotion): 0.0
Papilloma Bearer (%) ([3]; week 7 of promotion): 0.0%
Papillomas/mouse ([3]; week 7 of promotion): 0.0
Papilloma Bearer (%) ([3]; week 8 of promotion): 13.3%
Papillomas/mouse ([3]; week 8 of promotion): 0.6
Papilloma Bearer (%) ([3]; week 9 of promotion): 20.0%
Papillomas/mouse ([3]; week 9 of promotion): 1.3
Papilloma Bearer (%) ([3]; week 10 of promotion): 26.6%
Papillomas/mouse ([3]; week 10 of promotion): 1.6
Papilloma Bearer (%) ([3]; week 11 of promotion): 40.0%
Papillomas/mouse ([3]; week 11 of promotion): 1.9
Papilloma Bearer (%) ([3]; week 12 of promotion): 46.6%
Papillomas/mouse ([3]; week 12 of promotion): 2.1
Papilloma Bearer (%) ([3]; week 13 of promotion): 53.3%
Papillomas/mouse ([3]; week 13 of promotion): 2.4
Papilloma Bearer (%) ([3]; week 14 of promotion): 53.3%
Papillomas/mouse ([3]; week 14 of promotion): 2.7
Papilloma Bearer (%) ([3]; week 15 of promotion): 60.0%
Papillomas/mouse ([3]; week 15 of promotion): 3.0
Papilloma Bearer (%) ([3]; week 16 of promotion): 73.3%
Papillomas/mouse ([3]; week 16 of promotion): 3.4
Papilloma Bearer (%) ([3]; week 17 of promotion): 80.0%
Papillomas/mouse ([3]; week 17 of promotion): 3.7
Papilloma Bearer (%) ([3]; week 18 of promotion): 80.0%
Papillomas/mouse ([3]; week 18 of promotion): 4.2
Papilloma Bearer (%) ([3]; week 19 of promotion): 86.6%
Papillomas/mouse ([3]; week 19 of promotion): 4.7
Papilloma Bearer (%) ([3]; week 20 of promotion): 86.6%
Papillomas/mouse ([3]; week 20 of promotion): 5.1

CC1=CC=C([C@@](C)(O)CO)C[C@@H](O)C(C)=CCCC2(C)OC2CC1 (stereo partly drawn) [Compound 13, 7,8-Epoxy-1,3,11-cembratriene-13R(α),15R(α),16-triol]
EBV-EA induction, percentage relative to the positive control value (100%) ([1]; x 10 mol ratio/TPA): 92.6%
EBV-EA induction, percentage relative to the positive control value (100%) ([1]; x 100 mol ratio/TPA): 72.9%
EBV-EA induction, percentage relative to the positive control value (100%) ([1]; x 500 mol ratio/TPA): 54.2%
EBV-EA induction, percentage relative to the positive control value (100%) [1, 4]: 5.7%
viability percentage of Raji cells (indicator cells) ([2]; x 10 mol ratio/TPA): > 80%
viability percentage of Raji cells (indicator cells) ([2]; x 100 mol ratio/TPA): > 80%
viability percentage of Raji cells (indicator cells) ([2]; x 500 mol ratio/TPA): > 80%
viability percentage of Raji cells (indicator cells) [2, 4]: 60%

C/C1=C\C=C(\C(C)(O)CO)CC(=O)/C(C)=C/CCC2(C)OC2CC1 (stereo not drawn) [Compound 14, 7,8-Epoxy-13-oxo-1,3,11-cembratriene-15R(α),16-diol]
EBV-EA induction, percentage relative to the positive control value (100%) ([1]; x 10 mol ratio/TPA): 94.0%
EBV-EA induction, percentage relative to the positive control value (100%) ([1]; x 100 mol ratio/TPA): 75.1%
EBV-EA induction, percentage relative to the positive control value (100%) ([1]; x 500 mol ratio/TPA): 56.7%
EBV-EA induction, percentage relative to the positive control value (100%) [1, 4]: 8.3%
viability percentage of Raji cells (indicator cells) ([2]; x 10 mol ratio/TPA): > 80%
viability percentage of Raji cells (indicator cells) ([2]; x 100 mol ratio/TPA): > 80%
viability percentage of Raji cells (indicator cells) ([2]; x 500 mol ratio/TPA): > 80%
viability percentage of Raji cells (indicator cells) [2, 4]: 60%

C/C1=C\C=C(\C(C)(O)CO)CC/C(C=O)=C/CCC2(C)OC2CC1 (stereo not drawn) [Compound 15, 7,8-Epoxy-1,3,11-cembratriene-15R(α),16-diol-20-carboxyaldehyde]
EBV-EA induction, percentage relative to the positive control value (100%) ([1]; x 10 mol ratio/TPA): 90.6%
EBV-EA induction, percentage relative to the positive control value (100%) ([1]; x 100 mol ratio/TPA): 71.3%
EBV-EA induction, percentage relative to the positive control value (100%) ([1]; x 500 mol ratio/TPA): 52.4%
EBV-EA induction, percentage relative to the positive control value (100%) [1, 4]: 3.6%
viability percentage of Raji cells (indicator cells) ([2]; x 10 mol ratio/TPA): > 80%
viability percentage of Raji cells (indicator cells) ([2]; x 100 mol ratio/TPA): > 80%
viability percentage of Raji cells (indicator cells) ([2]; x 500 mol ratio/TPA): > 80%
viability percentage of Raji cells (indicator cells) [2, 4]: 60%

C/C1=C\C=C(\C(C)C)[C@@H](O)C/C(C)=C/CC/C(C)=C/CC1 [Sarcophytol-A, sarcophytol A, reference compound]
inhibition of EBV-EA activation induced by TPA [1]: 88%
EBV-EA induction, percentage relative to the positive control value (100%) ([1]; x 10 mol ratio/TPA): 97.3%
EBV-EA induction, percentage relative to the positive control value (100%) ([1]; x 100 mol ratio/TPA): 79.1%
EBV-EA induction, percentage relative to the positive control value (100%) ([1]; x 500 mol ratio/TPA): 60.4%
EBV-EA induction, percentage relative to the positive control value (100%) [1, 4]: 11.7%
viability percentage of Raji cells (indicator cells) ([2]; x 10 mol ratio/TPA): > 80%
viability percentage of Raji cells (indicator cells) ([2]; x 100 mol ratio/TPA): > 80%
viability percentage of Raji cells (indicator cells) ([2]; x 500 mol ratio/TPA): > 80%
viability percentage of Raji cells (indicator cells) [2, 4]: 50%
